According to PMC8018465, “Antimicrobial activities of a small molecule compound II-6s against oral streptococci” (Journal of Oral Microbiology, 2021):
Values after ≈ are worked out from the molar mass of the structure shown.

How the values were obtained:
[1] = design: method as in PMID 29355409; settings: 0.12% CHX daily for a week, repeated every month; in 18 months; cited from earlier work
S. mutans [2] = experiment: Bacterial drug resistance assay (MIC after repeated passages); assay type: cell-based, Streptococcus mutans UA159; settings: for change of MIC / induction of drug resistance after repeated exposure: 15 passages
Method: To examine whether S. mutans could develop drug resistance against II-6s, MIC measurements after repeated successive passages were performed to analyze the antimicrobial resistance, following a previous method. The MIC values of II-6s against S. mutans were tested as described above. After the initial MIC was determined, 20 µl of bacterial suspension in a well showing 1/2 MIC was mixed with 1,980 µl of BHI medium to eliminate the influence of residual drug. A volume of 50 µl of the resultant bacterial suspension was then inoculated onto a BHI agar plate followed by incubation at 37°C for 48 h. The colonies grown on the agar plate were again suspended in BHI broth. The overnight bacterial suspensions were diluted to a concentration of 1 × 10^7 CFU/ml for the next MIC test. The same procedure was repeatedly performed for 15 passages. An increase of four-fold or higher in MIC over the initial MIC was considered to be the standard for inducing resistance to an antibacterial agent. The assay was done in triplicates and repeated three times.

[3] = system: methicillin-susceptible S. aureus; design: method as in PMID 30940910; settings: cited from earlier work
[4] = In vitro cytotoxicity assay (CCK-8); assay type: cell-based, human; settings: human, 5 min exposure
Method: (§1) The cytotoxicity of II-6s was evaluated by the Cell Counting Kit-8 (CCK-8; Dojindo, Kumamoto, Japan) assay as described by Park et al.. Human gingival epithelial cells (HGE), human oral keratinocytes (HOK) and macrophages RAW264.7 (RAW264.7) were provided by the State Key Laboratory of Oral Diseases, Sichuan University, China. HGE, HOK and RAW264.7 were grown in Dulbecco’s modified Eagle’s medium (DMEM; GibcoTM, Invitrogen, Carlsbad, CA, USA) supplemented with 10% fetal bovine serum (FBS; Invitrogen) and 1% penicillin–streptomycin solution (Invitrogen) and cultured at 37°C in a humidified atmosphere containing 5% CO2. All cells were inoculated into 96 well plates at a density of 1 × 10^4 cells per well for 24 h and then treated with II-6s (0.98 to 500 μg/ml) for 5 min or 24 h. The positive control was treated with CHX (0.98 to 500 μg/ml) at the same time. After treatment, the wells were washed with sterile PBS and fresh medium was added. 10 μl of CCK-8 solution (10 μl) was added to each well and incubated for 1.5 h. The absorbance of each well was measured at the wavelength of 450 nm against a blank which contained medium only. Cell viability was calculated according to the following formula: percent viability = (A450 of treated group − A450 of blank control)/(A450 of negative control − A450 of blank control) × 100%. The experiment was conducted in triplicates and repeated three times.

[5] = system: Human gingival epithelial cells (HGE); experiment: In vitro cytotoxicity assay (CCK-8); assay type: cell-based; settings: 24 h exposure
Method: as §1

[6] = system: human oral keratinocytes (HOK); experiment: In vitro cytotoxicity assay (CCK-8); assay type: cell-based; settings: 24 h exposure
Method: as §1

S. mutans [7] = experiment: Time-kill assay; assay type: cell-based, Streptococcus mutans UA159; settings: at MBC
Method: (§2) The time- and dose-dependent killing capacities of II-6s were assessed by the method modified from that of Koo et al.. S. mutans was diluted to 1 × 10^7 CFU/ml in BHI broth containing test compounds or not, and incubated in 5% CO2 at 37°C. For the time-kill curve, the final concentration of II-6s and CHX was equivalent to their MBC. At 0, 0.5, 1, 2, 4, 6, 8 and 10 h, samples were serially diluted in PBS and 50 μl aliquots were spread onto BHI agar medium. For the dose-dependent killing curve, S. mutans was treated with different doses of II-6s and CHX for 5 min before diluted and spread. All plates were incubated anaerobically for 48 h followed by enumeration of CFU. The time-kill or dose-dependent killing curves were constructed by plotting the log10(CFU/ml) versus the incubation time or concentration. The experiment was performed in triplicates and repeated at least three times.

S. mutans [8] = experiment: Dose-dependent killing assay; assay type: cell-based, Streptococcus mutans UA159; settings: equivalent doses, 5-min exposure
Method: as §2

[9] = system: methicillin-resistant Staphylococcus aureus (MRSA); design: method as in PMID 30940910; settings: cited from earlier work
[10] = In vitro cytotoxicity assay (CCK-8); assay type: cell-based; settings: mouse, RAW264.7 macrophages; RAW264.7, 5 min exposure
Method: as §1

macrophages RAW264.7 = experiment: In vitro cytotoxicity assay (CCK-8); assay type: cell-based; settings: RAW264.7, 24 h exposure
Method: as §1

SMILES | patients at high caries risk reduced to moderate or low risk [1] | change of MIC / induction of drug resistance after repeated exposure (S. mutans [2]) | antimicrobial activity against methicillin-susceptible S. aureus [3] | IC50 at 5 min ([4]; human gingival epithelial cells (HGE)) [µg/mL] | IC50 at 5 min ([4]; human oral keratinocytes (HOK)) [µg/mL] | IC50 (cytotoxicity), compared with CHX [5] | IC50 (cytotoxicity), compared with CHX [6] | treatment time after which no visible colonies were observed on the plate (S. mutans [7]) [h] | reduction of S. mutans (S. mutans [7]; within 2 h) | MIC (S. mutans [2]; Streptococcus mutans, read-out: MIC against S. mutans during passaging) [µg/mL] | bactericidal activity in dose-dependent killing assay (S. mutans [8]) | antimicrobial activity against MRSA [9] | IC50 at 5 min [10] [µg/mL] | IC50 (cytotoxicity), compared with CHX (macrophages RAW264.7)
[H]/N=C(\N/C(=N/[H])NCCCCCCNC(=N)NC(=N)Nc1ccc(Cl)cc1)Nc1ccc(Cl)cc1 [CHX, Chlorhexidine digluconate, reference compound] | approximately 70% | increased by four times at the 15th passage | – | – | – | – | – | – | – | – | – | – | – | –
CC(C)(Cc1ccc2ccccc2c1)NC[C@H](O)CNc1cc(C(F)(F)F)cc(C(F)(F)F)c1 [II-6s, (S)-1-((3,5-bis(trifluoromethyl)phenyl)amino)-3-((2-methyl-1-(naphthalen-2-yl)propan-2-yl)amino)propan-2-ol] | – | did not induce drug resistance | decent antimicrobial activity | > 125 | > 125 | higher than that of CHX | higher than that of CHX | 8 | approximately 3 log10 CFU/ml | 3.91 (≈ 8.07 µM) | better bactericidal activities than CHX | decent antimicrobial activity | > 125 | higher than that of CHX
